The values below come from US20140011799A1 (Bristol-Myers Squibb Company, priority 2012, published 2014).

Where “and” joins values, the source holds several entries; their conditions need not be identical. Equal entries are not always repeated.

Experiment [1] deals with T1, Endothelial lipase (EL) (Homo sapiens, UniProt Q9Y5X9).
T1 construct: HT-1080 cells that were transformed using RAGE technology (Athersys) to overexpress endogenous EL; endogenous in cells; conditioned medium used
T1 sequence (Q9Y5X9 21-500): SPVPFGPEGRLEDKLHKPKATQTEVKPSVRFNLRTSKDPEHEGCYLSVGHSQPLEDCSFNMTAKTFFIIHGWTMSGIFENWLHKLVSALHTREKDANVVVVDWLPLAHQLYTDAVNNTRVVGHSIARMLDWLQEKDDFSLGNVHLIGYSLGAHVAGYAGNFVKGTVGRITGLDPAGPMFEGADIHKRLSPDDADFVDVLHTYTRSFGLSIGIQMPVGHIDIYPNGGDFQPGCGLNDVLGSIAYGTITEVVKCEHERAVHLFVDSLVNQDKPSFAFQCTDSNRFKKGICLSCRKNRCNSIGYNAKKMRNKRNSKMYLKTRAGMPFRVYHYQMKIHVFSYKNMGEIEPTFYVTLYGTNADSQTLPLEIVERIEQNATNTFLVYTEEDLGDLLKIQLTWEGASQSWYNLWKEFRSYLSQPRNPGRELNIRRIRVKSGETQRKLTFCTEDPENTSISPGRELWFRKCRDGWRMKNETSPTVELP
The experiment is described as follows: Endothelial lipase (EL) enzymatic assay, fluorescent substrate A10070 in DMPG vesicles. It counts as biochemical. The following applies: EL from conditioned media of HT-1080 cells; compound preincubated 30 min at 37° C; read-out: EL IC50. In short, it runs like this:
(§1)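 Vesicles prepared: A10070 dried with DMPG, resuspended in HEPES pH 8.0/NaCl/EDTA, sonicated on ice. Enzyme incubated with compound 30 min at 37° C. Reaction started with 1:10 diluted vesicles. Fluorescence (490/530 nm) followed 60 min; slope from 300–900 secs gives rate.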

The target of experiment [2] is T2, hepatic lipase (HL) (Homo sapiens, UniProt P11150).
T2 construct: made in house; host or cells: COS cells (conditioned medium, partially purified)
T2 sequence (P11150 23-499): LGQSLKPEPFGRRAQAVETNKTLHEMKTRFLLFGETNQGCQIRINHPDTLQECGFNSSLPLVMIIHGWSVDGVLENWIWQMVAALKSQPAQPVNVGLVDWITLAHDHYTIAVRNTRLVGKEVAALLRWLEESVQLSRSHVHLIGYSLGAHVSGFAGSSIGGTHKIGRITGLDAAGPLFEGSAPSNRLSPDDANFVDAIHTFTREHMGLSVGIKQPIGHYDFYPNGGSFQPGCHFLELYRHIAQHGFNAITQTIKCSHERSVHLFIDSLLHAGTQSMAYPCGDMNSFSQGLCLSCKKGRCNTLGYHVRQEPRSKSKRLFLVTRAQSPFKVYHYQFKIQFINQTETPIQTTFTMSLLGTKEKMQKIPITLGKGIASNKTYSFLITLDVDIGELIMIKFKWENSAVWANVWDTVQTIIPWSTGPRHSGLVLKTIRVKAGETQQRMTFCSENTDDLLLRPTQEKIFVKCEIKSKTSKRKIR
The experiment can be described thus: Hepatic lipase (HL) enzymatic assay, fluorescent substrate A10070 in DMPG vesicles. It counts as biochemical. The following applies: HL partially purified from conditioned media of COS cells; compound preincubated 30 min at 37° C; read-out: HL IC50. In short, it runs like this:
as §1

On to `CS(=O)(=O)C(c1nnc(CS(N)(=O)=O)o1)c1nc2c(F)cc(-c3ccccc3)cc2s1` (stereo not shown) [Example 163, 1-(5-((4-fluoro-6-phenyl-1,3-benzothiazol-2-yl)(methylsulfonyl)methyl)-1,3,4-oxadiazol-2-yl)methanesulfonamide], for which the half-maximal inhibitory concentration (IC50) in experiment [1] and in experiment [2] was less than 10 nM in each case.
With `CS(=O)(=O)NCc1nnc(C(c2nc3ccc(-c4ccc(F)nc4)cc3s2)S(C)(=O)=O)o1` (stereo not shown) [Example 172, N-((5-((6-(6-Fluoro-3-pyridinyl)-1,3-benzothiazol-2-yl)(methylsulfonyl)methyl)-1,3,4-oxadiazol-2-yl)methyl)methanesulfonamide], the IC50 came to 240 nM in experiment [1] and 32 nM in experiment [2].
`CC(C)(C)OC(=O)NS(=O)(=O)NCc1nnc(C(c2nc3ccc(-c4ccc(Cl)cc4)cc3s2)S(=O)(=O)Cc2ccccc2)o1` (stereo not shown) [Example 123, tert-butyl (((5-((benzylsulfonyl)(6-(4-chlorophenyl)-1,3-benzothiazol-2-yl)methyl)-1,3,4-oxadiazol-2-yl)methyl)sulfamoyl)carbamate]: the IC50 in experiment [1] and in experiment [2] was less than 10 nM in each case.
Consider `CS(=O)(=O)C(c1nnc(CNS(N)(=O)=O)o1)c1nc2cc(-c3ccc(F)nc3)ccc2s1` (stereo not shown) [Example 233, N-[(5-{[5-(6-fluoropyridin-3-yl)-1,3-benzothiazol-2-yl] (methanesulfonyl)methyl}-1,3,4-oxadiazol-2-yl)methyl]aminosulfonamide], for which the concentration for half-maximal inhibition (IC50) is 1 nM in experiment [1] and 18 nM in experiment [2].
For `O=C(NCCS(=O)(=O)C(c1nnc(CC2SC(=O)NC2=O)o1)c1nc2cc(F)c(-c3ccccc3)cc2s1)OCc1ccccc1` (stereo not shown) [Example 167, benzyl (2-(((5-((2,4-dioxo-1,3-thiazolidin-5-yl)methyl)-1,3,4-oxadiazol-2-yl)(5-fluoro-6-phenyl-1,3-benzothiazol-2-yl)methyl)sulfonyl)ethyl)carbamate], the IC50 in experiment [1] and in experiment [2] was less than 10 nM each time.
Turning to `COCCNC(=O)c1cccc(-c2ccc3nc(C(c4nnc(CC5(C)NC(=O)NC5=O)o4)S(C)(=O)=O)sc3c2)c1` (stereo not shown) [Example 205, 3-{2-[methanesulfonyl({5-[(4-methyl-2,5-dioxoimidazolidin-4-yl)methyl]-1,3,4-oxadiazol-2-yl})methyl]-1,3-benzothiazol-6-yl}-N-(2-methoxyethyl)benzamide], the IC50 in experiment [1] worked out at 18 nM; in experiment [2], 449 nM.
For `CC1(Cc2nnc(C(c3nc4ccc(-c5cccc(C(=O)N6CCC(O)CC6)c5)cc4s3)S(C)(=O)=O)o2)NC(=O)NC1=O` (stereo not shown) [Example 212, 5-{[5-({6-[3-(4-hydroxypiperidine-1-carbonyl)phenyl]-1,3-benzothiazol-2-yl} (methanesulfonyl)methyl)-1,3,4-oxadiazol-2-yl]methyl}-5-methyl-imidazolidine-2,4-dione], in that order: 2 nM and 1100 nM.
For `CC(O)CS(=O)(=O)C(c1nnc(CNS(N)(=O)=O)o1)c1nc2ccc(-c3ccccc3)cc2s1` (stereo not shown) [Example 170, N-((5-(((2-Hydroxypropyl)sulfonyl)(6-phenyl-1,3-benzothiazol-2-yl)methyl)-1,3,4-oxadiazol-2-yl)methyl)sulfamide], the IC50 in experiment [1] and in experiment [2] was less than 10 nM throughout.
On to `CS(=O)(=O)C(c1nnc(C[C@@H]2NS(=O)(=O)NC2=O)o1)c1nc2ccc(-c3ccc(C(=O)N4CCOCC4)cc3)cc2s1` (stereo partly drawn) [Example 111, (4S)-4-((5-((methylsulfonyl) (6-(4-(4-morpholinylcarbonyl)phenyl)-1,3-benzothiazol-2-yl)methyl)-1,3,4-oxadiazol-2-yl)methyl)-1,2,5-thiadiazolidin-3-one 1,1-dioxide], for which the IC50 in experiment [1] is less than 10 nM; in experiment [2] it was 629 nM.
As to `CS(=O)(=O)C(c1nnc(CNS(N)(=O)=O)o1)c1nc2ccc(-c3cccc(C(=O)N4CC(F)(F)C4)c3)cc2s1` (stereo not shown) [Example 202, N-((5-((6-(3-((3,3-difluoro-1-azetidinyl)carbonyl)phenyl)-1,3-benzothiazol-2-yl)(methylsulfonyl)methyl)-1,3,4-oxadiazol-2-yl)methyl)sulfamide], the 50% inhibitory concentration (IC50) in experiment [1] is less than 10 nM; in experiment [2] it was 35 nM.
`COc1cc2nc(C(c3nnc(CNS(=O)(=O)NC(=O)OC(C)(C)C)o3)S(C)(=O)=O)sc2cc1-c1cnn(C)c1` (stereo not shown) [Example 159, 2-methyl-2-propanyl {[(5-{[5-methoxy-6-(1-methyl-1H-pyrazol-4-yl)-1,3-benzothiazol-2-yl](methylsulfonyl)methyl}-1,3,4-oxadiazol-2-yl)methyl]sulfamoyl}carbamate]: the values for the IC50 in experiment [1] and in experiment [2] were 13 nM and 14 nM, respectively.
As to `CS(=O)(=O)C(c1nnc(CC2SC(=O)NC2=O)o1)c1nc2ccc(-c3ccnc(C#N)c3)cc2s1` (stereo not shown) [Example 103, 4-(2-((5-((2,4-dioxo-1,3-thiazolidin-5-yl)methyl)-1,3,4-oxadiazol-2-yl)(methylsulfonyl)methyl)-1,3-benzothiazol-6-yl)-2-pyridinecarbonitrile], the IC50 in experiment [1] was less than 10 nM; in experiment [2], < 10 nM and 36 nM.
For `COCc1ccc(-c2ccc3nc(C(c4nnc(CNS(N)(=O)=O)o4)S(=O)(=O)Cc4cc(Cl)cc(Cl)c4)sc3c2)cc1` (stereo not shown) [Example 235, N-({5-[(3,5-dichlorophenyl)methanesulfonyl({6-[4-(methoxymethyl)phenyl]-1,3-benzothiazol-2-yl})methyl]-1,3,4-oxadiazol-2-yl}methyl)aminosulfonamide], the IC50 in experiment [1] is 4 nM; in experiment [2], 6 nM.
`Cn1cc(-c2ccc3nc(C(c4nnc(CNS(N)(=O)=O)o4)S(=O)(=O)CCC(=O)O)sc3c2)cn1` (stereo not shown) [Example 174, 3-(((6-(1-Methyl-1H-pyrazol-4-yl)-1,3-benzothiazol-2-yl)(5-((sulfamoylamino)methyl)-1,3,4-oxadiazol-2-yl)methyl)sulfonyl)propanoic acid]: the values for the IC50 in experiment [1] and in experiment [2] were 11 nM and 124 nM, respectively.
Turning to `COCc1ccc(-c2ccc3nc(C(c4nnc(CNS(N)(=O)=O)o4)S(=O)(=O)Cc4ccc(F)cc4)sc3c2)cc1` (stereo not shown) [Example 242, N-({5-[(4-fluorophenyl)methanesulfonyl ({6-[4-(methoxymethyl)phenyl]-1,3-benzothiazol-2-yl})methyl]-1,3,4-oxadiazol-2-yl}methyl) aminosulfonamide], the IC50 in experiment [1] and in experiment [2] was 1 nM throughout.
Take `CS(=O)(=O)C(c1nnc(C[C@@H]2NS(=O)(=O)N(C3CC3)C2=O)o1)c1nc2ccc(-c3ccccc3)cc2s1` (stereo partly shown) [Example 181]: the IC50 amounted to 130 nM in experiment [1] and 56 nM in experiment [2].
Consider `NS(=O)(=O)NCc1nnc(C(c2nc3ccc(-c4ccc(F)nc4)cc3s2)S(=O)(=O)Cc2ccc(C(F)(F)F)cc2)o1` (stereo not shown) [Example 238, N-[(5-{[6-(6-fluoropyridin-3-yl)-1,3-benzothiazol-2-yl] [4-(trifluoromethyl)phenyl]methanesulfonylmethyl}-1,3,4-oxadiazol-2-yl)methyl]aminosulfonamide], for which the IC50 in experiment [1] stood at 4 nM; in experiment [2] it was 18 nM.
`NS(=O)(=O)NCc1nnc(C(c2nc3ccc(-c4ccccc4)cc3s2)S(=O)(=O)CC(O)CO)o1` (mixture of isomers) [Example 171, N-((5-(((2,3-Dihydroxypropyl)sulfonyl)(6-phenyl-1,3-benzothiazol-2-yl)methyl)-1,3,4-oxadiazol-2-yl)methyl)sulfamide]: the IC50 in experiment [1] and in experiment [2] was less than 10 nM throughout.
Turning to `CS(=O)(=O)C(c1nnc(CNS(N)(=O)=O)o1)c1nc2ccc(-c3cccc(C(=O)N4CCC(O)CC4)c3)cc2s1` (stereo not shown) [Example 255, N-{[5-({6-[3-(4-hydroxypiperidine-1-carbonyl)phenyl]-1,3-benzothiazol-2-yl} (methanesulfonyl)methyl)-1,3,4-oxadiazol-2-yl]methyl} aminosulfonamide], the IC50 in experiment [1] came to 2 nM; in experiment [2] it was 46 nM.
With `COCc1ccc(-c2ccc3nc(C(c4nnc(CNS(N)(=O)=O)o4)S(=O)(=O)Cc4cccc(F)c4)sc3c2)cc1` (stereo not shown) [Example 241, N-({5-[(3-fluorophenyl)methanesulfonyl({6-[4-(methoxymethyl)phenyl]-1,3-benzothiazol-2-yl})methyl]-1,3,4-oxadiazol-2-yl}methyl)aminosulfonamide], the IC50 in experiment [1] and in experiment [2] was 1 nM throughout.
